Laboratory results taken from US9017735B2, “Modulation of KCNQ potassium channel activity for treatment of psychiatric disorders and the symptoms thereof” (Marquette University, priority 2009, dated 2015).
Entries after “also recorded” stand apart in the source; their conditions may differ.

What was measured:
[1] = tested on: KCNQ (Kv7) potassium channels; test: Prepulse inhibition (PPI) of the startle response, acute PCP model of schizophrenia; assay type: in vivo, rats; details: for effect on deficits in prepulse inhibition produced by phencyclidine (summary statement): phencyclidine administration in laboratory rodents, no dose stated
Source text: The startle response is produced by delivery of a sudden and intense sensory stimulus pulse (120 db sound) and can be inhibited by exposure to a weaker prepulse (62, 66, or 75 db) which is slightly above the background noise level (60 db). […] PPI has been used as a measure of sensory information processing in rodents and humans. […] A cocktail mixture of XE991 and PCP dissolved in saline was used in these studies. N=38 rats per treatment. *p<0.05 vs. Sal/Sal; +p<0.05 vs. Sal/PCP.
(§1) Drugs. All drugs were purchased from commercial sources and dissolved in saline. […] All drug doses were nmol per side and were injected bilaterally into the specified brain region.

[2] = tested on: KCNQ (Kv7) potassium channels; test: Social interaction behavior, acute PCP model of schizophrenia; assay type: in vivo, rats; details: phencyclidine administration in laboratory rodents; no dose stated
Source text: (§2) Social interaction deficit is considered to be a negative symptom of schizophrenia and can be induced in rodents by acute PCP or Ketamine administration and can be reversed by antipsychotics. […] A cocktail mixture of XE991 and PCP dissolved in saline was used in these studies. *p<0.05 vs. Sal/Sal; +p<0.05 vs. Sal/PCP; N=25-42 rats per treatment.
as §2, with “DMP543” for “XE991”, “40% DMSO” for “saline”, “N=10-28” for “N=25-42”, “treatment. […]” for “treatment.”

[3] = tested on: KCNQ potassium channels in prefrontal cortex; test: Forced delayed alternation task in a T-maze (working memory), acute PCP model, brain microinfusion; assay type: in vivo, rats; details: for effect on deficits in forced delayed alternation task performance in a T-maze produced by phencyclidine (summary statement): phencyclidine administration in laboratory rodents, no dose stated
Description: This experimental paradigm involves the working memory, a prefrontal cortex dependent task, and is used to examine attention and memory function. This study was conducted to determine the role of KCNQ channels in PFC in regulation of memory.
Microinjection and Behavioral Experiments. Stainless Steel cannulae were implanted bilaterally 1 mm above nucleus accumbens or implanted in prefrontal cortex. Rats were permitted a minimum of 7 days recovery from surgery. Drugs were injected using an injection needle that extended 1 mm beyond the tip of the guide cannulae. […] In experiments where two drugs were delivered into accumbens, the microinjections were separated by 15 minutes. Behavioral activity then was monitored as discussed in the Results.
as §1

[4] = tested on: KCNQ (Kv7) potassium channels; test: Social interaction behavior, acute PCP model of schizophrenia; assay type: in vivo, rats; details: for effect of channel blocker alone on level of social interaction: 15 minutes before social interaction arena; for reversal of PCP-induced social interaction deficit: p<0.05 vs. Sal/PCP
KCNQ channel = details: comparative statement among the DuPont channel blockers; cited from earlier work
[5] = comparative statement among the DuPont channel blockers; cited from earlier work

For O=C1c2ccccc2C(Cc2ccnc(F)c2)(Cc2ccnc(F)c2)c2ccccc21 [DMP543, 10,10-bis(2-fluoro-4-pyridinylmethyl)-9(10H)-anthracenone], the “effect on deficits in prepulse inhibition produced by phencyclidine (summary statement)” value [1] was “attenuate or fully reverse”, the “effect on deficits in social interaction produced by phencyclidine (summary statement)” value [2] was “attenuate or fully reverse” and the “effect on deficits in forced delayed alternation task performance in a T-maze produced by phencyclidine (summary statement)” value [3] was “attenuate or fully reverse”. The “effect of channel blocker alone on level of social interaction” value ([4]; DMP543 0.15 mg/kg s.c. alone) was “did not significantly modulate”, the “reversal of PCP-induced social interaction deficit” value ([4]; DMP543 0.15 mg/kg s.c. co-administered with PCP 1.5 mg/kg s.c. (cocktail in 40% DMSO)) was “significantly reversed the deficit” and the “reversal of PCP-induced social interaction deficit” value ([4]; DMP543 0.15 mg/kg s.c. co-administered with PCP 1.5 mg/kg s.c. (cocktail in 40% DMSO), listed as DM543) was “reversed”. For the same compound, the “potency at KCNQ channel” value (KCNQ channel) was “higher potency” and the serum half-life [5] was “higher serum half-life”.

In the case of O=C1N(c2ccccc2)c2ccccc2C1(Cc1ccncc1)Cc1ccncc1 [Linopirdine, 3,3-bis(4-pyridinylmethyl)-1-phenylindolin-2-one], the “effect on deficits in prepulse inhibition produced by phencyclidine (summary statement)” value [1] is reported as “attenuate or fully reverse” and the “effect on deficits in social interaction produced by phencyclidine (summary statement)” value [2] is reported as “attenuate or fully reverse”.

With c1ccc(C2(N3CCCCC3)CCCCC2)cc1 [PCP, phencyclidine] the “effect of PCP alone on prepulse inhibition” value ([1]; PCP 1.5 mg/kg s.c., all three prepulses, p<0.05 vs. Sal/Sal) was “reduced the prepulse inhibition at all three prepulses; also recorded: disrupts the prepulse inhibition”, the “effect of PCP alone on working memory” value ([3]; PCP 3.0 mg/kg s.c. one hour before behavioral testing, trained rats, p<0.05 vs. Sal/Sal) was “robust and reproducible disruption of working memory” and the “effect of PCP alone on social interaction time” value ([4]; PCP 1.5 mg/kg s.c., 15 minutes before testing, p<0.05 vs. Sal/Sal) was “significant reduction in social interaction time”.

With O=C1c2ccccc2C(Cc2ccncc2)(Cc2ccncc2)c2ccccc21 [XE991, 10,10-bis(4-pyridinylmethyl)-9(101-1)-anthracenone] the “effect of channel blocker alone on prepulse inhibition” value ([1]; XE991 0.5 mg/kg s.c. alone, 10 minutes before startle chamber, prepulses 62, 66, 75 db) was “did not show any disruption of the prepulse inhibition”, the “reversal of PCP-induced deficits in PPI” value ([1]; XE991 0.5 mg/kg s.c. with PCP 1.5 mg/kg s.c. (cocktail in saline), 66 db prepulse, p<0.05 vs. Sal/PCP) was “reversed the PCP-induced deficits in PPI” and the “effect on deficits in prepulse inhibition produced by phencyclidine (summary statement)” value [1] was “attenuate or fully reverse”. For the same compound, the “effect on deficits in social interaction produced by phencyclidine (summary statement)” value [2] was “attenuate or fully reverse”, the “effect of channel blocker alone on memory and performance in delayed alternation task” value ([3]; XE991 60 nmol/1 ul/1 min, acute bilateral infusion into prefrontal cortex, alone) was “did not disrupt the memory and performance” and the “reversal of PCP-induced working memory deficits” value ([3]; XE991 60 nmol/1 μl/1 min microinfusion into PFC 5 minutes before PCP 3.0 mg/kg s.c., p<0.05 vs. Sal/PCP) was “reversed the PCP-induced memory deficits”. For the same compound, the “effect on PCP-mediated working memory disruption” value ([3]; XE991 microinjected in the nucleus accumbens (data not shown)) was “no effect”, the “effect on deficits in forced delayed alternation task performance in a T-maze produced by phencyclidine (summary statement)” value [3] was “attenuate or fully reverse” and the “effect of channel blocker alone on level of social interaction” value ([4]; XE991 0.5 mg/kg s.c. alone) was “did not significantly modulate”. The “reversal of PCP-induced social interaction deficit” value ([4]; XE991 0.5 mg/kg s.c. co-administered with PCP 1.5 mg/kg s.c. (cocktail in saline)) was “reversed the deficit”.
